Measurements reported in US20060252699A1, “Method for lowering serum homocysteine” (priority 2004, published 2006).
Values joined by “and” are separate entries in the source; they are usually repeats but may differ in a detail not shown here. Equal entries are not always repeated.

Columns and labels:
serum homocysteine = assay: L-isoleucine therapy for 10 weeks in postmenopausal women: serum homocysteine; assay type: in vivo, human
Experimental: L-isoleucine therapy (3-5 grams/day divided into two doses per day) was administered to 17 postmenopausal women for 10 weeks. The L-isoleucine therapy was associated with an 11% average reduction in serum homocysteine levels among 14 post menopausal woman experiencing hot flashes.

[1] = test system: methylmalonyl CoA mutase (MCM); details: brain astrocytes, in vitro; cited from earlier work

Row | Structure (SMILES) | average reduction in serum homocysteine levels (serum homocysteine; among 14 post menopausal women experiencing hot flashes, 10 weeks) [%] | reduction in serum homocysteine (serum homocysteine; in 2 participants) [%] | reduction in serum homocysteine (serum homocysteine; in 5 participants) [%] | homocysteine (serum homocysteine; individual participants, 10 week values (l), L-isoleucine 3-5 grams/day divided into two doses) | % reduction (homocysteine) (serum homocysteine; individual participants, 10 week vs baseline, given as fraction) | upregulation of the expression of MCM message [1] [fold]
1 | CC[C@H](C)[C@H](N)C(=O)O [L-isoleucine] | 11 | > 30 | > 20 | 9.8 umol/L and 4.8 umol/L and 7 umol/L (2×) and 7.1 umol/L and 8.7 umol/L and 7.9 umol/L and 6.1 umol/L and 10.8 umol/L and 8.3 umol/L (2×) and 5.1 umol/L and 6.6 umol/L and 6.7 umol/L | 0.3043 and 0.2473 and 0.01389 and 0 and 0.1319 and 0.04688 and 0.01408 and 0.009174 and −0.2388 and 0.03488 and 0.1774 and 0.2235 and 0.3021 and 0.2632 | 4
2 | CCC(=O)SCCNC(=O)CCNC(=O)[C@H](O)C(C)(C)COP(=O)(O)OP(=O)(O)OC[C@H]1O[C@@H](n2cnc3c(N)ncnc32)[C@H](O)[C@@H]1OP(=O)(O)O [propionyl CoA] | – | – | – | – | – | 4
3 | CC(C)[C@H](N)C(=O)O [valine] | – | – | – | – | – | 4
